Test results reported in patent US20240025884A1 (Dong-A ST Co., Ltd., priority 2022, published 2024).

Molecular target: GCN2 (Homo sapiens (Human), UniProt Q9P2K8)
Assay: GCN2 Biochemical Assay (TR-FRET, GFP-eIF2S1 substrate phosphorylation)
Details: read-out: IC50 (GCN2 Inhibitory Activity)
Outline: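 In-house GCN2 (1.6 nM 2× stock) phosphorylates GFP-eIF2S1 (50 nM 2× stock) with ATP (0.2 mM 2× stock) and tRNA, pH 7.5, 70 min at room temperature; 10-point 3.16-fold compound series. TR-FRET detection with Tb-anti-phospho antibody, 2–3 h, Ex 340/Em 490/520 nm; artifact plate spiked with phospho-substrate.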

GCN2, sequence (Q9P2K8 whole entry): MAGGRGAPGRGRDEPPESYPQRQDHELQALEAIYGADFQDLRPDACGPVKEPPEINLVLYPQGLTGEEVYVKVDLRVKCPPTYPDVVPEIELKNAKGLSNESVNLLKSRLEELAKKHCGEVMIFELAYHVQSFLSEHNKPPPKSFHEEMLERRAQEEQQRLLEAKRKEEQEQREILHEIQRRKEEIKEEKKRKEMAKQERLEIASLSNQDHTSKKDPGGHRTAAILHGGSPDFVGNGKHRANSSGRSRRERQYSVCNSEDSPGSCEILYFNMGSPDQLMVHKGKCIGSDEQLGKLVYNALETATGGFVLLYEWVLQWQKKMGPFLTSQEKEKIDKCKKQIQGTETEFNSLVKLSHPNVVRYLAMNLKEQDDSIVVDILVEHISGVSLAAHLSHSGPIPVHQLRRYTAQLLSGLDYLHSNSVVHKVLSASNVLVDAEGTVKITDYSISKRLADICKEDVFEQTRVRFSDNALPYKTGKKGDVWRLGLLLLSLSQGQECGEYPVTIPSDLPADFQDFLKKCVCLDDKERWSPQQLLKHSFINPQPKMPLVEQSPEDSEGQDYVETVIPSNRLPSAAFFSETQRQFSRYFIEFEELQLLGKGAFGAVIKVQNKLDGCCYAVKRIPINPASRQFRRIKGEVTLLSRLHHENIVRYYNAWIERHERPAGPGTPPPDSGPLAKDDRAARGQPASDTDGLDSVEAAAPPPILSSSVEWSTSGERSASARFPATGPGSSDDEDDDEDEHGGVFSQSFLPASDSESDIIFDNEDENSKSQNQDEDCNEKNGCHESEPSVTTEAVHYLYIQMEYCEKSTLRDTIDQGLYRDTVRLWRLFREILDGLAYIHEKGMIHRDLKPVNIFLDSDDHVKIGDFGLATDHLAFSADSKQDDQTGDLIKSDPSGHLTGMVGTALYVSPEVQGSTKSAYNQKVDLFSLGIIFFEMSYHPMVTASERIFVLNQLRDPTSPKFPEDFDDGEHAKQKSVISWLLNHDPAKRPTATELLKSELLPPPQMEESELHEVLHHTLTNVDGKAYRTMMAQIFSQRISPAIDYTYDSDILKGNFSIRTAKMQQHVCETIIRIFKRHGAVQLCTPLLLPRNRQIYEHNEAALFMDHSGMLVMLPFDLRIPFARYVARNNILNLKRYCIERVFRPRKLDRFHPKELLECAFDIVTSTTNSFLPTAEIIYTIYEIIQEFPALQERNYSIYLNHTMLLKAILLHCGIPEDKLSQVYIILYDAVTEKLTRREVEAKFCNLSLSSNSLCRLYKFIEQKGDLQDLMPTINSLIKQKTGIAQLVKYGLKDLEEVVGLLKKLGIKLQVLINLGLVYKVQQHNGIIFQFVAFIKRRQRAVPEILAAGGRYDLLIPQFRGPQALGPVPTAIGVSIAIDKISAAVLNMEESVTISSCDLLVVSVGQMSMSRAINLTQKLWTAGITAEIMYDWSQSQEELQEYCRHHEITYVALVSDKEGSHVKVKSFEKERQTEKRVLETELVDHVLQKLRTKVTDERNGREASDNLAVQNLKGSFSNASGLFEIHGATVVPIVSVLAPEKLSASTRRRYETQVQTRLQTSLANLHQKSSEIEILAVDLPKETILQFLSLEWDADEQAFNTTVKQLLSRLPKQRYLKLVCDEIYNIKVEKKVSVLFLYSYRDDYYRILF

Row | SMILES | IC50
1 | Cc1cnc(Nc2cc(C)n(C)n2)nc1-c1c[nH]c2c(NC(=O)CN3CC[C@H](Oc4ccnc(Cl)c4)C3)cccc12 [Example 91] | 10 to 100 nM
2 | Cc1cnc(Nc2cc(C)n(C)n2)nc1-c1c[nH]c2c(NC(=O)CN3CC[C@H](Oc4cncc(N)n4)C3)cccc12 [Example 92] | < 10 nM
3 | Cc1cnc(Nc2cc(C)n(C)n2)nc1-c1c[nH]c2c(NC(=O)CN3CC[C@H](Oc4ncc(F)cn4)C3)cccc12 [Example 93] | 10 to 100 nM
4 | Cc1cnc(Nc2cc(C)n(C)n2)nc1-c1c[nH]c2c(NC(=O)CN3CC[C@H](Oc4ncnc(Cl)c4C)C3)cccc12 [Example 94, (S)-2-(3-((6-chloro-5-methylpyrimidin-4-yl)oxy)pyrrolidin-1-yl)-N-(3-(2-((1,5-dimethyl-1H-pyrazol-3-yl)amino)-5-methylpyrimidin-4-yl)-1H-indol-7-yl)acetamide] | 10 to 100 nM
5 | Cc1cc(O[C@H]2CCN(CC(=O)Nc3cccc4c(-c5nc(Nc6cc(C)n(C)n6)ncc5C)c[nH]c34)C2)nc(N)n1 [Example 95, (S)-2-(3-((2-amino-6-methylpyrimidin-4-yl)oxy)pyrrolidin-1-yl)-N-(3-(2-((1,5-dimethyl-1H-pyrazol-3-yl)amino)-5-methylpyrimidin-4-yl)-1H-indol-7-yl)acetamide] | < 10 nM
6 | Cc1cnc(Nc2cc(C)n(C)n2)nc1-c1c[nH]c2c(NC(=O)CN3CC[C@H](Oc4nc(Cl)ncc4N)C3)cccc12 [Example 96, (S)-2-(3-((5-amino-2-chloropyrimidin-4-yl)oxy)pyrrolidin-1-yl)-N-(3-(2-((1,5-dimethyl-1H-pyrazol-3-yl)amino)-5-methylpyrimidin-4-yl)-1H-indol-7-yl)acetamide] | 10 to 100 nM
7 | Cc1ncc(Br)c(O[C@H]2CCN(CC(=O)Nc3cccc4c(-c5nc(Nc6cc(C)n(C)n6)ncc5C)c[nH]c34)C2)n1 [Example 97, (S)-2-(3-((5-bromo-2-methylpyrimidin-4-yl)oxy)pyrrolidin-1-yl)-N-(3-(2-((1,5-dimethyl-1H-pyrazol-3-yl)amino)-5-methylpyrimidin-4-yl)-1H-indol-7-yl)acetamide] | 10 to 100 nM
8 | Cc1cnc(Nc2cc(C)n(C)n2)nc1-c1c[nH]c2c(NC(=O)CN3CC[C@H](Oc4cc(-c5cc(Cl)ccc5F)nc(N)n4)C3)cccc12 [Example 98, (S)-2-(3-((2-amino-6-(5-chloro-2-fluorophenyl)pyrimidin-4-yl)oxy)pyrrolidin-1-yl)-N-(3-(2-((1,5-dimethyl-1H-pyrazol-3-yl)amino)-5-methylpyrimidin-4-yl)-1H-indol-7-yl)acetamide] | 100 to 1000 nM
9 | Cc1cnc(Nc2cc(C)n(C)n2)nc1-c1c[nH]c2c(NC(=O)CN3CC[C@H](Oc4cc(C(F)(F)F)nc(N)n4)C3)cccc12 [Example 99, (S)-2-(3-((2-amino-6-(trifluoromethyl)pyrimidin-4-yl)oxy)pyrrolidin-1-yl)-N-(3-(2-((1,5-dimethyl-1H-pyrazol-3-yl)amino)-5-methylpyrimidin-4-yl)-1H-indol-7-yl)acetamide] | 10 to 100 nM
10 | Cc1cnc(Nc2cc(C)n(C)n2)nc1-c1c[nH]c2c(NC(=O)CN3CC[C@H](Oc4ccc(-c5ccccc5)cc4)C3)cccc12 [Example 100, (S)-2-(3-([1,1′-biphenyl]-4-yloxy)pyrrolidin-1-yl)-N-(3-(2-((1,5-dimethyl-1H-pyrazol-3-yl)amino)-5-methylpyrimidin-4-yl)-1H-indol-7-yl)acetamide] | 100 to 1000 nM
11 | Cc1cnc(Nc2cc(C)n(C)n2)nc1-c1c[nH]c2c(NC(=O)CN3CC[C@H](Oc4ccc(C(C)(C)c5ccccc5)cc4)C3)cccc12 [Example 101, (S)-N-(3-(2-((1,5-dimethyl-1H-pyrazol-3-yl)amino)-5-methylpyrimidin-4-yl)-1H-indol-7-yl)-2-(3-(4-(2-phenylpropan-2-yl)phenoxy)pyrrolidin-1-yl)acetamide] | > 1000 nM
12 | CCCCCc1cnc(O[C@H]2CCN(CC(=O)Nc3cccc4c(-c5nc(Nc6cc(C)n(C)n6)ncc5C)c[nH]c34)C2)nc1 [Example 102, (S)-N-(3-(2-((1,5-dimethyl-1H-pyrazol-3-yl)amino)-5-methylpyrimidin-4-yl)-1H-indol-7-yl)-2-(3-((5-pentylpyrimidin-2-yl)oxy)pyrrolidin-1-yl)acetamide] | 10 to 100 nM
13 | Cc1cnc(Nc2cc(C)n(C)n2)nc1-c1c[nH]c2c(NC(=O)CN3CC[C@H](Oc4ccc(CN5CCN(C)CC5)cc4)C3)cccc12 [Example 103, (S)-N-(3-(2-((1,5-dimethyl-1H-pyrazol-3-yl)amino)-5-methylpyrimidin-4-yl)-1H-indol-7-yl)-2-(3-(4-((4-methylpiperazin-1-yl)methyl)phenoxy)pyrrolidin-1-yl)acetamide] | 10 to 100 nM
14 | Cc1cnc(Nc2cc(C)n(C)n2)nc1-c1c[nH]c2c(NC(=O)CN3CC[C@H](Oc4ccnn4C)C3)cccc12 [Example 104, (S)-N-(3-(2-((1,5-dimethyl-1H-pyrazol-3-yl)amino)-5-methylpyrimidin-4-yl)-1H-indol-7-yl)-2-(3-((1-methyl-1H-pyrazol-5-yl)oxy)pyrrolidin-1-yl)acetamide] | < 10 nM
15 | Cc1cnc(Nc2cc(C)n(C)n2)nc1-c1c[nH]c2c(NC(=O)CN3CC[C@H](Oc4ccn(C)n4)C3)cccc12 [Example 105, (S)-N-(3-(2-((1,5-dimethyl-1H-pyrazol-3-yl)amino)-5-methylpyrimidin-4-yl)-1H-indol-7-yl)-2-(3-((1-methyl-1H-pyrazol-3-yl)oxy)pyrrolidin-1-yl)acetamide] | < 10 nM
16 | COC(=O)c1sc2ccccc2c1O[C@H]1CCN(CC(=O)Nc2cccc3c(-c4nc(Nc5cc(C)n(C)n5)ncc4C)c[nH]c23)C1 [Example 106, methyl (S)-3-((1-(2-((3-(2-((1,5-dimethyl-1H-pyrazol-3-yl)amino)-5-methylpyrimidin-4-yl)-1H-indol-7-yl)amino)-2-oxoethyl)pyrrolidin-3-yl)oxy)benzo[b]thiophene-2-carboxylate] | 100 to 1000 nM
17 | COC(=O)c1sccc1O[C@H]1CCN(CC(=O)Nc2cccc3c(-c4nc(Nc5cc(C)n(C)n5)ncc4C)c[nH]c23)C1 [Example 107, methyl (S)-3-((1-(2-((3-(2-((1,5-dimethyl-1H-pyrazol-3-yl)amino)-5-methylpyrimidin-4-yl)-1H-indol-7-yl)amino)-2-oxoethyl)pyrrolidin-3-yl)oxy)thiophene-2-carboxylate] | < 10 nM
18 | Cc1cnc(Nc2cc(C)n(C)n2)nc1-c1c[nH]c2c(NC(=O)CN3CC[C@H](Oc4ccsc4C(=O)O)C3)cccc12 [Example 108, (S)-3-((1-(2-((3-(2-((1,5-dimethyl-1H-pyrazol-3-yl)amino)-5-methylpyrimidin-4-yl)-1H-indol-7-yl)amino)-2-oxoethyl)pyrrolidin-3-yl)oxy)thiophene-2-carboxylic acid] | < 10 nM

Next, values leading:

Row | IC50 | SMILES
19 | < 10 nM | Cc1cnc(Nc2cc(C)n(C)n2)nc1-c1c[nH]c2c(NC(=O)CN3CC[C@H](Oc4ccsc4C(N)=O)C3)cccc12 [Example 109, (S)-3-((1-(2-((3-(2-((1,5-dimethyl-1H-pyrazol-3-yl)amino)-5-methylpyrimidin-4-yl)-1H-indol-7-yl)amino)-2-oxoethyl)pyrrolidin-3-yl)oxy)thiophene-2-carboxamide]
20 | < 10 nM | CNC(=O)c1sccc1O[C@H]1CCN(CC(=O)Nc2cccc3c(-c4nc(Nc5cc(C)n(C)n5)ncc4C)c[nH]c23)C1 [Example 110, (S)-3-((1-(2-((3-(2-((1,5-dimethyl-1H-pyrazol-3-yl)amino)-5-methylpyrimidin-4-yl)-1H-indol-7-yl)amino)-2-oxoethyl)pyrrolidin-3-yl)oxy)-N-methylthiophene-2-carboxamide]
21 | < 10 nM | Cc1cnc(Nc2cc(C)n(C)n2)nc1-c1c[nH]c2c(NC(=O)CN3CC[C@H](Oc4ccsc4C(=O)NC4CC4)C3)cccc12 [Example 111, (S)-N-cyclopropyl-3-((1-(2-((3-(2-((1,5-dimethyl-1H-pyrazol-3-yl)amino)-5-methylpyrimidin-4-yl)-1H-indol-7-yl)amino)-2-oxoethyl)pyrrolidin-3-yl)oxy)thiophene-2-carboxamide]
22 | 10 to 100 nM | Cc1cc(O[C@H]2CCN(CC(=O)Nc3cccc4c(-c5nc(Nc6cc(C)n(C)n6)ncc5C)c[nH]c34)C2)no1 [Example 112, (S)-N-(3-(2-((1,5-dimethyl-1H-pyrazol-3-yl)amino)-5-methylpyrimidin-4-yl)-1H-indol-7-yl)-2-(3-((5-methylisoxazol-3-yl)oxy)pyrrolidin-1-yl)acetamide]
23 | 10 to 100 nM | Cc1cnc(Nc2cc(C)n(C)n2)nc1-c1c[nH]c2c(NC(=O)CN3CC[C@H](Oc4noc5ccccc45)C3)cccc12 [Example 113, (S)-2-(3-(benzo[d]isoxazol-3-yloxy)pyrrolidin-1-yl)-N-(3-(2-((1,5-dimethyl-1H-pyrazol-3-yl)amino)-5-methylpyrimidin-4-yl)-1H-indol-7-yl)acetamide]
24 | 10 to 100 nM | Cc1cnc(Nc2cc(C)n(C)n2)nc1-c1c[nH]c2c(NC(=O)CN3CC[C@H](Oc4ccsn4)C3)cccc12 [Example 114, (S)-N-(3-(2-((1,5-dimethyl-1H-pyrazol-3-yl)amino)-5-methylpyrimidin-4-yl)-1H-indol-7-yl)-2-(3-(isothiazol-3-yloxy)pyrrolidin-1-yl)acetamide]
25 | 10 to 100 nM | Cc1cnc(Nc2cc(C)n(C)n2)nc1-c1c[nH]c2c(NC(=O)CN3CC[C@H](Oc4ccsc4C)C3)cccc12 [Example 115, (S)-N-(3-(2-((1,5-dimethyl-1H-pyrazol-3-yl)amino)-5-methylpyrimidin-4-yl)-1H-indol-7-yl)-2-(3-((2-methylthiophen-3-yl)oxy)pyrrolidin-1-yl)acetamide]
26 | 10 to 100 nM | Cc1cnc(Nc2cc(C)n(C)n2)nc1-c1c[nH]c2c(NC(=O)CN3CC[C@H](Oc4cc[nH]n4)C3)cccc12 [Example 116, (S)-2-(3-((1H-pyrazol-3-yl)oxy)pyrrolidin-1-yl)-N-(3-(2-((1,5-dimethyl-1H-pyrazol-3-yl)amino)-5-methylpyrimidin-4-yl)-1H-indol-7-yl)acetamide]
